Laboratory results reported in patent publication US8628806B2, “Hypolipidemic composition and its use” (Hangzhou Minsheng Pharmaceutical Co., Ltd., priority 2006, dated 2014).

What was measured:
[1] = system: hyperlipidemia mice; assay: Example 15 hypolipidemic effect of peony/Codonopsis extract ratios in yolk emulsion hyperlipidemia mice; assay type: in vivo; details: hyperlipidemia ICR mice
Protocol: Group H1 and B1 were mixed in different ratios (see Table 8) and formulated into different test medicines. Recommended dose (animal): H1+B1=200 mg/kg body weight, ig dose is 0.2 ml/10 g body weight. [table] 100 SPF ICR mice were employed with the body weight 20±2 g, half are male and the other half are female. Provided by Zhejiang Province Experimental Animal Center, Licence: SCXK(ZHE)2003-0001 90 ml yolk and 30 ml physiological Saline were mixed thoroughly in electric mixer to form emulsion, which was stored at 4° C. for further use. […]: test medicine 1-23 groups, postive control group (Zocor), model control group and normal control group, 10 mice for each group, half male and half female. […] The content of total cholesterol (TC), triglyceride (TG) and high density lipoprotein (HDL-C) of the serum were measured. T test was employed to analyze the significant difference between the groups. The result is shown in X±SD.

[2] = system: hyperlipidemia mice; assay: Example 14 lipid lowering screening test in yolk emulsion hyperlipidemia mice; assay type: in vivo; details: hyperlipidemia ICR mice; ig once daily 7 days; dose 20 mg/kg; X±SD, 10 animals
Protocol: As described before, the test medicine is the mixture of H series and B series in the ratio H:B (3:1). Recommended dose (for animal) is: […] the recommended does is 200 mg/kg. • Test medicine 1: H1+B1, ig 0.2 ml/10 g; • Test medicine 2: H2+B1, ig 0.2 ml/10 g; • Test medicine 3: H3+B1, ig 0.2 ml/10 g; • Test medicine 4: H4+B1, ig 0.2 ml/10 g; • Test medicine 5: H5+B1, ig 0.2 ml/10 g; • Test medicine 6: H1+B2, ig 0.2 ml/10 g; • Test medicine 7: H2+B2, ig 0.2 ml/10 g; • Test medicine 8: H3+B2, ig 0.2 ml/10 g; • Test medicine 9: H4+B2, ig 0.2 ml/10 g; • Test medicine 10: H5+B2, ig 0.2 ml/10 g; • Test medicine 11: HB ig 0.2 ml/10 g.
130 SPF ICR mice were employed with the body weight 20±2 g, half are male and the other half are female. Provided by Zhejiang Province Experimental Animal Center, Licence: SCXK(ZHE)2003-0001
(§1) 90 ml yolk and 30 ml physiological Saline were mixed thoroughly in electric mixer to form emulsion, which was stored at 4° C. for further use.
(§2) 140 ICR mice were randomly divided into 14 groups: test medicine 1, test medicine 2, test medicine 3, test medicine 4, test medicine 5, test medicine 6, test medicine 7, test medicine 8, test medicine 9, test medicine 10, test medicine 11, postive control group (Zocor), model control group and normal control group, 10 mice for each group, half male and half female. Once daily for a continous 7-day period, the model control group and normal control group were provided with same volume of distilled water, while the other groups were administered with medicines by gastric perfusion. 2 hours after the last gastric perfusion, except of the normal control group, fresh yolk emulsion was intraperitoneally injected to the rest 13 groups of mice, 0.5 ml for a single animal. After 20 hours, eye ball was plucked and blood was collected, make sure 12 hours fasting before the collection. The content of total cholesterol (TC), triglyceride (TG) and high density lipoprotein (HDL-C) of the serum were measured.
EXCEL was employed to analyze the significant difference between the groups. The result is shown in X±SD.

[3] = system: hyperlipidemia mice; assay: Example 16 dose screening of H1+B1 (4:1) in yolk emulsion hyperlipidemia mice; assay type: in vivo, ICR mice; details: dose 20 mg/kg ig once daily 7 days; X±SD, 10 animals
Protocol: H1 is peony extract obtained from Example 1. B1 is Codonopsis extract obtained from Example 7. The test medicines are mixtures of H1 and B1 with the ratio of 4:1 (the weight ratio of peony extract and Codonopsis extract is 2.7:1).
80 SPF ICR mice were employed with the body weight 20±2 g, half are male and the other half are female. Provided by Zhejiang Province Experimental Animal Center, Licence: SCXK(ZHE)2003-0001
as §1
as §2, with “80 ICR” for “140 ICR”, “into 8” for “into 14”, “5,” for “5, test medicine 6, test medicine 7, test medicine 8, test medicine 9, test medicine 10, test medicine 11,”, “a continuous” for “a continous”, “except for” for “except of”, “rest 7” for “rest 13”
T test was employed to analyze the significant difference between the groups. The result is shown in X±SD.

[4] = ig once daily 7 days, dose 20 mg/kg, X±SD, 10 animals
[5] = test medicines 200 mg/kg, positive control 20 mg/kg, ig 7 days

CCC(C)(C)C(=O)O[C@H]1C[C@@H](C)C=C2C=C[C@H](C)[C@H](CC[C@@H]3C[C@@H](O)CC(=O)O3)[C@H]21 [positive control group]
HDL-C (serum high density lipoproteincholesterol content) [1, 4]: 1.59 ± 0.13 mmol/L | HDL-C/TC [1, 4]: 0.22 ± 0.08 | TC (total serum cholesterol content) [1, 4]: 8.03 ± 3.12 mmol/L | TG (serum triglyceride content) [1, 4]: 8.57 ± 4.20 mmol/L | TC compared with model control group [1, 5]: lower TC, with significant difference (P<0.05) | TG compared with model control group [1, 5]: lower TG, with significant difference (P<0.05) | HDL-C (serum high density lipoproteincholesterol content) [2]: 1.39 ± 0.23 mmol/L | HDL-C/TC [2]: 0.18 ± 0.05 | TC (total serum cholesterol content) [2]: 8.58 ± 4.18 mmol/L | TG (serum triglyceride content) [2]: 7.78 ± 5.36 mmol/L | HDL-C (serum high density lipoproteincholesterol content) [3]: 1.35 ± 0.15 mmol/L | HDL-C/TC [3]: 0.26 ± 0.06 | TC (total serum cholesterol content) [3]: 5.97 ± 2.40 mmol/L | TG (serum triglyceride content) [3]: 4.31 ± 3.28 mmol/L
